Active and inactive are the calls of the source.

Test [1] deals with T1, RNA-binding protein pos-1 (Caenorhabditis elegans, UniProt G5EF15).
T1 sequence (G5EF15 whole entry): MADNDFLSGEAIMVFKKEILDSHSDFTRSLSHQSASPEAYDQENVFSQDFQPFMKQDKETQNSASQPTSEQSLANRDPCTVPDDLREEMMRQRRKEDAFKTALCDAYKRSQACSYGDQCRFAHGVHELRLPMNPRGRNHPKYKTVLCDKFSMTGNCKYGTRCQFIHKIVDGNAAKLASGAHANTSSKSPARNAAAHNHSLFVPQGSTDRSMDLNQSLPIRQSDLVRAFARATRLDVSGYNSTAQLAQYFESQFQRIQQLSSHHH
Kind of test: inhibitors of POS-1/mex-3 RNA binding, dose response, biochemical, fluorescence polarization (AID 1964). (In general: Polarisation of emitted light reports the rotation of a fluorescent probe.)

The target in test [2] is Small ubiquitin-related modifier 1 (Homo sapiens, UniProt P63165). Kind of test: inhibitors of SUMO1 peptide binding, dose response, biochemical, fluorescence polarization, uHTS hits (AID 624382). Format: functional. As to conditions: read-out: IC50_Mean.
Test [3] concerns the target T2, Histone-lysine N-methyltransferase NSD2 (Homo sapiens, UniProt O96028).
T2 sequence (O96028 whole entry): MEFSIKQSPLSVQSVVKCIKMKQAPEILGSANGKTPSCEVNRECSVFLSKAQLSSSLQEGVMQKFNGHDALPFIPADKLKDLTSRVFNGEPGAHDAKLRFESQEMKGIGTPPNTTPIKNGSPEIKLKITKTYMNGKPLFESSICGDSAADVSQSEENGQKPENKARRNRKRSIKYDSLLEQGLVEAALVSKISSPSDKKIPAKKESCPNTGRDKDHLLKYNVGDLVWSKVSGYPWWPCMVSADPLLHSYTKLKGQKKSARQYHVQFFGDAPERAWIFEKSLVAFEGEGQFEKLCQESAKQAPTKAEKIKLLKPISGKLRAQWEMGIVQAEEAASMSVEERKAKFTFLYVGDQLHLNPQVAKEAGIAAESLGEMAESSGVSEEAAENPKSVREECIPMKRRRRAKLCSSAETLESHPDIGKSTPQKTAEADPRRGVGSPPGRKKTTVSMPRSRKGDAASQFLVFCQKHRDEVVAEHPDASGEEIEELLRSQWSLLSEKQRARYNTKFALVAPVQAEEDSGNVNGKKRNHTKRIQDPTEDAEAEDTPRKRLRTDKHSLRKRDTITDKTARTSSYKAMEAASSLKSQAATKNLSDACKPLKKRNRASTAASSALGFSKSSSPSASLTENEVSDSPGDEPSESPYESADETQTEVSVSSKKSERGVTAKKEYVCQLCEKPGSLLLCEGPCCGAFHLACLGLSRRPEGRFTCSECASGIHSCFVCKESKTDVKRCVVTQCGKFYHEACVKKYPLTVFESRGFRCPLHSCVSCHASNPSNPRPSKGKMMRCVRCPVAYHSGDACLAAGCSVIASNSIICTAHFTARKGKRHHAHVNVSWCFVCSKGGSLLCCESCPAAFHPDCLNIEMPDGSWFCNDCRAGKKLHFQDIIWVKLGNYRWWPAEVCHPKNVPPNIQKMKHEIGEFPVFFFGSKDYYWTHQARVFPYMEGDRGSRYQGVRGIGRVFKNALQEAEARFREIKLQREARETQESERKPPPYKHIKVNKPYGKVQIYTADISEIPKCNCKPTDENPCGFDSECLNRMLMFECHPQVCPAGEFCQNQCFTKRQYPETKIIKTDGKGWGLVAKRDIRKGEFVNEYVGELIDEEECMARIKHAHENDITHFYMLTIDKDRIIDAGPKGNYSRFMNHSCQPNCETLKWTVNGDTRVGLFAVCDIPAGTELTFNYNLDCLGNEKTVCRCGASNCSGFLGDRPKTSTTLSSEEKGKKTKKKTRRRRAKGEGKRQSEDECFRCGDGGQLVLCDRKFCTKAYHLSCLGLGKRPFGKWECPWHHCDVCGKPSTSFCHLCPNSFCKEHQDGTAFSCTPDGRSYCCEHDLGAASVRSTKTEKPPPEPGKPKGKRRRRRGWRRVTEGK
Format: biochemical.

The target of test [4] is Photoreceptor-specific nuclear receptor (Homo sapiens, UniProt Q9Y5X4). Format: functional.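 Note: potency for compounds that break the NR2E3 corepressor complex and count as activators.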
Test [5] in a line: microbe, parasite or virus in culture. Format: functional. As to conditions: Mycobacterium tuberculosis.
For test [6], the target named is Protein-arginine deiminase type-4 (Homo sapiens, UniProt Q9UM07). Kind of test: human PAD4 inhibitor potency, dose response, biochemical, fluorescence readout (AID 492970).
A short description of test [7]: MDA-MB-231 cell growth inhibition, dose response, cytotoxicity control for RAD54 inhibitor project, CellTiter-Glo luminescence, cherry-pick (AID 651692). Format: functional, cell-based. For orientation: Cellular ATP, detected with luciferase, serves as a proxy for viable cell number.
Test [8] can be described thus: A549 cell cytotoxicity, dose response, cytotoxicity control, plate reader, cherry-pick, antagonist series (AID 743412). Format: functional, cell-based.
Test [9] is described as follows: MC4R antagonists, dose response, counter-screen for LGR2 antagonist project, cell-based, plate reader, cherry pick (AID 743444).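 Note: transfected HEK 293 cells stimulated with alpha-MSH peptide; potency of inhibitors of the alpha-MSH evoked signal.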 Format: functional. For orientation: Counterscreens check selectivity or assay interference.
Test [10] is described as follows: cells. Format: functional, cell-based.
Test [11] has as its target T3, Serine/threonine-protein phosphatase (Candida dubliniensis (strain CD36 / CBS 7987 / NCPF 3949 / NRRLY-17841) (Yeast), UniProt B9W6M3).
T3 sequence (B9W6M3 whole entry): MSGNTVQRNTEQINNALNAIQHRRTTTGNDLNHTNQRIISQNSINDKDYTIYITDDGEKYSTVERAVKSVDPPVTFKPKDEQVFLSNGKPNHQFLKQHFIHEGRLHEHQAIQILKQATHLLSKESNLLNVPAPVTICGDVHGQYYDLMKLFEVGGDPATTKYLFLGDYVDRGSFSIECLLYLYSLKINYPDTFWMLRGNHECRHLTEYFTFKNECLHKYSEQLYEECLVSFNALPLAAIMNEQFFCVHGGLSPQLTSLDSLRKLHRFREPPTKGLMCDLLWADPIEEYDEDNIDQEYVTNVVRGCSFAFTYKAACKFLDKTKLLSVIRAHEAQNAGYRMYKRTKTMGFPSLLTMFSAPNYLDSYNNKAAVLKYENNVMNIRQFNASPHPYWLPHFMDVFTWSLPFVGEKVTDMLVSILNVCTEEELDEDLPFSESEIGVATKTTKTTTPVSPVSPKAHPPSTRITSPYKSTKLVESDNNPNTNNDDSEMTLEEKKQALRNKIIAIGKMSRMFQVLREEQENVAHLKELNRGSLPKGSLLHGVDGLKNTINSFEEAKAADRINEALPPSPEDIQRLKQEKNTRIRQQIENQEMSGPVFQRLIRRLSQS
Kind of test: calcineurin pathway inhibitors in yeast reporter, dose response, S. cerevisiae, CDRE-lacZ, luminescence, secondary (AID 2388).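 Note: yeast reporter cells carrying a calcineurin-responsive lacZ construct stimulated with calcium chloride; luminescent beta-galactosidase reporter signal in whole cells rather than isolated phosphatase activity; potency for inhibition where a drop in reporter signal means calcineurin blockade.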 Format: functional, cell-based.

The subject of test [12] is Streptococcus sp. 'group A'. Kind of test: growth inhibition of control SK(-) GAS strain, dose response, counter-screen for streptokinase expression inhibitor project, luminescence, kanamycin, BacTiterGlo, confirmation (AID 1900). Format: functional, organism-based.
Test [13] concerns BJ. Kind of test: cells. Format: functional, cell-based. As to conditions: Homo sapiens.
Test [14] can be described thus: cytotoxicity toward DRD oncogenic fibroblasts, dose response, cell-based, non-viral oncogenic, luminescence (AID 1934). Format: functional. The note with it: Homo sapiens.
Test [15] has as its system BJ. Kind of test: cytotoxicity toward Ras-transformed BJeLR fibroblasts, dose response, cell-based, alamar blue fluorescence, cherrypicked samples (AID 2631).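 Note: confirmatory dose-response assay in RAS-dependent BJ fibroblasts engineered with TERT, LT and ST, with cytotoxicity read by fluorescence.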 Format: functional. The note with it: Homo sapiens.
For test [16], the target named is Cytochrome P450 3A4 (Homo sapiens, UniProt P08684).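 Note: CYP3A4 tested as one member of a cytochrome P450 panel screen.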
Cytochrome P450 3A4, sequence (P08684 whole entry): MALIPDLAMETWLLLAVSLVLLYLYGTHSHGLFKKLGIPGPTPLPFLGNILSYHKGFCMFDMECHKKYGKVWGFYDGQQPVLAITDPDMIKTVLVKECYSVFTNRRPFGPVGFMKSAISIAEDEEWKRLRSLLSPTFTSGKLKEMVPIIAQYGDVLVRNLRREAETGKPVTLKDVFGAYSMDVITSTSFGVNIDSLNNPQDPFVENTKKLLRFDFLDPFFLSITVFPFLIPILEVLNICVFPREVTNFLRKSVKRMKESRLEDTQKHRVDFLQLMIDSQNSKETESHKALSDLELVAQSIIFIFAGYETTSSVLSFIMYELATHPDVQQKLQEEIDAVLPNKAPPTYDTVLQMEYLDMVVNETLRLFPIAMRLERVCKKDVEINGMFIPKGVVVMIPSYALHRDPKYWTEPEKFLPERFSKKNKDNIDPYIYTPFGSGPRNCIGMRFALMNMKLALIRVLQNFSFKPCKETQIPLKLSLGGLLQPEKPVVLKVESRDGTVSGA

Protein-arginine deiminase type-4, sequence (Q9UM07 whole entry): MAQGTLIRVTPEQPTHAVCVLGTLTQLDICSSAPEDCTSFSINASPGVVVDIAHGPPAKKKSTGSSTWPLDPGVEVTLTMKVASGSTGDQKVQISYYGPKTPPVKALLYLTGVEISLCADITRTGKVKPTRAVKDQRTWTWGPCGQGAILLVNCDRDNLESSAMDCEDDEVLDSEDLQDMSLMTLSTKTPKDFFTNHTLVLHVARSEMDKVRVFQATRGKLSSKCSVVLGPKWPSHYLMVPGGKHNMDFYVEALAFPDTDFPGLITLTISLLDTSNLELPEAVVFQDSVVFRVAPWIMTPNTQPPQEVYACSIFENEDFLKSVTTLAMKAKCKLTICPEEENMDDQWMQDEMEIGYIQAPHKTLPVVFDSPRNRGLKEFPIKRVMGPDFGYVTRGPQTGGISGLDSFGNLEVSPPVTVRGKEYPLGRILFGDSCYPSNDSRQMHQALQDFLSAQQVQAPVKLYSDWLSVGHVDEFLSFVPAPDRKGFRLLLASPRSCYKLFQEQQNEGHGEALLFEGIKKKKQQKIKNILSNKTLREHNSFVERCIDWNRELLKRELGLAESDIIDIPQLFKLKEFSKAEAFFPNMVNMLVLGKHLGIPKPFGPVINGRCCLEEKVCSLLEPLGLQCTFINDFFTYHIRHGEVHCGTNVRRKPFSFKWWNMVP
Photoreceptor-specific nuclear receptor, sequence (Q9Y5X4 whole entry): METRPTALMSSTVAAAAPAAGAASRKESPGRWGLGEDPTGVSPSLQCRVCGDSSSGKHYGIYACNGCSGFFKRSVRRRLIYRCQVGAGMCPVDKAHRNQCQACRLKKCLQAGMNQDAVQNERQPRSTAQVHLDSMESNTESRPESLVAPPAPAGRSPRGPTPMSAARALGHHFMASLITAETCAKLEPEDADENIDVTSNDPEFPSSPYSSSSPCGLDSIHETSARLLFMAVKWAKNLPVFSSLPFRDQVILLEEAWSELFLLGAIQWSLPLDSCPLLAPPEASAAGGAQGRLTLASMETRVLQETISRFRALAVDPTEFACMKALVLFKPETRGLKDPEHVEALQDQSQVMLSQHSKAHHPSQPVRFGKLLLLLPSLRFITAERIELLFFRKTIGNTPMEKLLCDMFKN
Small ubiquitin-related modifier 1, sequence (P63165 whole entry): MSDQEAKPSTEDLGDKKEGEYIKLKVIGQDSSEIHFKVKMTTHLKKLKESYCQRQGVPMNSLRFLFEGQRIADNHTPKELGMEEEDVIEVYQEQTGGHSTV

The EC50 is the concentration giving half of the maximal effect. The AC50 is the midpoint of the concentration-response curve, whichever way the signal moves. Regarding `COc1ccc(NS(=O)(=O)c2ccc3c(c2)[C@H]2C=CC[C@H]2[C@@H](c2ccc(C(=O)O)cc2)N3)cc1`, the EC50 in [1] was 14.3 µM (inconclusive). The IC50 in test [2] was 4.98 µM (active). Moreover, the AC50 in [3] is > 20 µM (inactive).
Turning to `Cn1nc(-c2ccccn2)nc2c(=O)n(C)c(=O)nc1-2`, the IC50 in test [4] was > 39.8 µM (not active); in test [6], 21 µM (inactive). In addition, in [5], the CC50 was > 40 µM (active). Moreover, the values for the AC50 in test [7], in test [8] and in test [9] were 3.79 µM (active), 3.15 µM (active) and 2.73 µM (active), respectively.
`CCC(=O)NC(c1ccc(OC)cc1)c1cc(Cl)c2cccnc2c1O` (stereo unspecified): the EC50 in [10] was > 350 µM (not active); in [11], > 180 µM (inactive).
For `CCCCCCCCCCn1c2c(c(=N)c3c1CCC3)CCC2`, the EC50 in [12] is 5.58 µM (active); in test [13], 2.46 µM (inconclusive); in test [14], 3.44 µM (inconclusive); in [15] it was 0.706 µM (active). Besides, the AC50 in test [16] is 31.6 µM (inconclusive).
